# Patent US11312722B2, “Hsp90 inhibitors and uses thereof” (TRUSTEES OF BOSTON UNIVERSITY, priority 2019, dated 2022)
# Key:
# [1] = system: Hsp90 (C. albicans whole cell lysate); assay: biochemical; type: binding; conditions: for C. alb Selective: Yes/No call
# Description: (§1) All analogs were assessed for Hsp90 binding affinity using a fluorescence polarization (FP)-based equilibrium competition assay in fungal and human whole cell lysates. […] Using lysates, the relative potency and selectivity for fungal Hsp90 was measured versus the entire ensemble of human Hsp90 isoforms in microplate format using small amounts of test materials. […] Thermal shift assays were performed under saturating ligand conditions, i.e. equimolar concentrations (10 μM) of protein and ligand. As a result, they provided qualitative evidence of target binding, but not a quantitative measurement of ligand affinity. For quantitation, a ligand dissociation constant (Ki) for key compounds was also determined using purified NBDs in FP assays and KD measurements were made by surface plasmon resonance (SPR) using a Biacore instrument. Finally, all analogs were assessed for whole cell antifungal activity against the pathogens C. albicans and C. neoformans.
# (§2) FP assays. Whole cell lysates were prepared for FP assays as described previously. Total protein concentration of human and yeast lysates was determined by Bradford assay. […] Serial dilutions of test Hsp90 inhibitors were then assayed under these same conditions to monitor loss of fluorescence polarization as an indicator of probe displacement from Hsp90. […] Titrations of test compound in 25 μL of binding buffer (supplemented with 0.1 mg/mL bovine gamma globulin), were mixed with an equal volume of freshly prepared whole-cell lysate spiked with Cy3-GdA (0.1 nM). Plates were incubated at room temperature for 4.5 h to achieve equilibrium binding for the geldanamycin-based probe. […] Non-linear 4-parameter curve fitting of raw displacement data was performed in GraphPad Prism 5.0 to determine EC50 values as a measure of relative Hsp90-binding affinity. Results were normalized to the value determined for GdA in lysate of each cell type.
# (§3) Statistical methods. […] In calculating the error of selectivity determinations, the fractional error of measurements in each species was summed to yield a composite error for the derived ratio.
# [2] = target: Hsp90 (C. albicans whole cell lysate) (Candida albicans (strain SC5314 / ATCC MYA-2876) (Yeast), UniProt P46598); assay: biochemical; type: binding; conditions: for C. alb Active (biochemical): Yes/No call; for EC50: read-out: C. alb EC50
# Description: as §1, §2, §3
# [3] = system: C. neoformans (Strain H99); assay: Antifungal sensitivity testing (MIC), C. neoformans H99; type: cell-based; conditions: for MIC80 / MIC90: Cryptococcus neoformans; for MIC80: read-out: C. neo MIC80; for MIC90: read-out: C. neo MIC90
# Description: Color scale bar: no growth inhibition (green) to complete inhibition (black). Each shaded box represents the mean of technical duplicates. The experiment was repeated as an independent biological replicate to confirm results.
# Minimum inhibitory concentration (MIC) value for compounds against C. neoformans (Strain H99) was determined in dose-response format, in technical duplicate. Experiments were conducted in RPMI medium at 37° C. for 48 h. Relative viable cell number was measured by standard dye reduction (resazurin) assay.
# Yeast strains and culture conditions. Strains used in this study were C. albicans CaCi2 (clinical isolate 2), [58] SC5314, [59] and C. neoformans H99. […] Active cultures were maintained on solid (2% agar) yeast extract peptone (YPD, 1% yeast extract, 2% bactopeptone, 2% glucose) at 4° C. for no more than one month.
# Antifungal sensitivity testing. […] Each compound was tested in duplicate in at least two independent experiments. […] Plates were photographed after 24 h of incubation at 30° C.
# [4] = system: Hsp90 (C. neoformans whole cell lysate); type: binding; conditions: C. neo FS calculated using EC50
# Description: as §1, §2, §3
# [5] = target: Hsp90 (C. neoformans whole cell lysate) (Cryptococcus neoformans, UniProt J9VVA4); type: binding; conditions: for EC50: read-out: C. neo EC50
# Description: as §1, §2, §3
# Sequence of Hsp90 (C. neoformans whole cell lysate) (Cryptococcus neoformans, UniProt J9VVA4) (J9VVA4 1-699): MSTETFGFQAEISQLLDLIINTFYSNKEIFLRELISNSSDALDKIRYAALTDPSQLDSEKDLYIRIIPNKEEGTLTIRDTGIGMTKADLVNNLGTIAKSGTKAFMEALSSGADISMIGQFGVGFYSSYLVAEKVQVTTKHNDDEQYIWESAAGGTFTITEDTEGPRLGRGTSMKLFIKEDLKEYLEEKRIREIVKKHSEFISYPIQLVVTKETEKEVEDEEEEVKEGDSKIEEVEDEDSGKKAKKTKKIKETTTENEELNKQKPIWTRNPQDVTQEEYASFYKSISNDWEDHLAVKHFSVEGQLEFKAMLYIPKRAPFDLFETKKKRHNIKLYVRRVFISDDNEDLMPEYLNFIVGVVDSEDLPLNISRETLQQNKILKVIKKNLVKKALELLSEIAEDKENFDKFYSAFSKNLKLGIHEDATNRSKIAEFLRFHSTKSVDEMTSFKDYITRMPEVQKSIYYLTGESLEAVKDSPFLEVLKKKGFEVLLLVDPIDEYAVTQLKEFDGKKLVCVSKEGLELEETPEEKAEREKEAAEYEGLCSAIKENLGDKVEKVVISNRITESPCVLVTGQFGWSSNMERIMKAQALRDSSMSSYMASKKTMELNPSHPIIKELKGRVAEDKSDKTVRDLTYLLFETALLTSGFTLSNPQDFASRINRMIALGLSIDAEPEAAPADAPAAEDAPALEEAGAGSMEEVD
SMILES,C. alb Selectivity (FS) [1],C. alb Selective [1],C. alb Active (biochemical) [2],EC50 [2] [nM],MIC80 [3] [µM],MIC90 [3] [µM],C. neo Selectivity (FS) [4],EC50 [5] [nM],C. neo MIC80 [3] [µM],C. neo MIC90 [3] [µM],C. neo Active (cells) ([3]; Yes/No call),C. neo Active (biochemical) ([5]; Yes/No call)
"Cc1cccc(-n2nc(C)c(Nc3cc(O)cc(O)c3C(=O)N3Cc4ccccc4C3)c2C)c1 [ACSM01486, (2-((3,5-Dimethyl-1-(m-tolyl)-1H-pyrazol-4-yl)amino)-4,6-dihydroxyphenyl)(isoindolin-2-yl)methanone]",0.7,No,Yes,2060,> 25,> 25,43.4,34,,,,
COc1cccc(-c2cc(Nc3cc(O)cc(O)c3C(=O)N3Cc4ccncc4C3)n(C)n2)c1 [ACSM01492],1.1,No,Yes,10600,,,46.2,258,>25,>25,,
CN1CCN(c2ccc3c(c2)CN(C(=O)c2c(O)cc(O)cc2Nc2cc(-c4cccc(C(F)(F)F)c4)nn2C)C3)CC1 [ACSM01487],2.3,No,Yes,1160,,,50.1,55,>25,>25,,
Cc1cccc(-c2cc(Nc3cc(O)cc(O)c3C(=O)N3Cc4ccc(N5CCN(C)CC5)cc4C3)n(C)n2)c1 [ACSM01279],3.7,No,Yes,2150,,,18.3,449,>25,>25,,
O=C(O)Cn1nc(-c2ccccc2)cc1Nc1cc(O)cc(O)c1C(=O)N1Cc2ccccc2C1 [ACSM01476],1.4,No,Yes,2120,,,5.8,537,>25,>25,,
"COc1ccc(Cn2nc(-c3ccccc3)cc2Nc2cc(O)cc(O)c2C(=O)N2Cc3cccnc3C2)cc1 [Compound 23, 5-((1-((4-Methoxyphenyl)methyl)-3-phenyl-1H-pyrazol-5-yl)amino)-4-(5H,6H,7H-pyrrolo[3,4-b]pyridine-6-carbonyl)benzene-1,3-diol]",,,,,> 25,> 25,,,,,No,Yes
"Cc1cccc(-c2cc(Nc3cc(O)cc(O)c3C(=O)N3Cc4ccccc4C3)n(C)n2)c1 [Compound 109, 4-(2,3-Dihydro-1H-isoindole-2-carbonyl)-5-((1-methyl-3-(3-methylphenyl)-1H-pyrazol-5-yl)amino)benzene-1,3-diol]",,,Yes,,> 25,> 25,,,,,,
"Cc1cccc(-c2cc(Nc3cc(O)cc(O)c3C(=O)N3Cc4cccnc4C3)n(C)n2)c1 [Compound 110, 5-((1-Methyl-3-(3-methylphenyl)-1H-pyrazol-5-yl)amino)-4-(5H,6H,7H-pyrrolo[3,4-b]pyridine-6-carbonyl)benzene-1,3-diol]",,,Yes,,> 25,> 25,,,,,,
"Cc1ccccc1-c1cc(Nc2cc(O)cc(O)c2C(=O)N2Cc3cccnc3C2)n(C)n1 [Compound 107, 5-((1-Methyl-3-(2-methylphenyl)-1H-pyrazol-5-yl)amino)-4-(5H,6H,7H-pyrrolo[3,4-b]pyridine-6-carbonyl)benzene-1,3-diol]",,,Yes,,> 25,> 25,,,,,,
"CC(C)(C)n1nc(-c2ccccc2)cc1Nc1cc(O)cc(O)c1C(=O)N1Cc2cn[nH]c2C1 [Compound 95, 5-((1-tert-Butyl-3-phenyl-1H-pyrazol-5-yl)amino)-4-(1H,4H,5H,6H-pyrrolo[3,4-c]pyrazole-5-carbonyl)benzene-1,3-diol]",,,Yes,,> 25,> 25,,,,,,
